# Like-named read-outs stand apart in the source and are kept apart here.
# What was measured:
# [1] = test system: MKN-45 (Gastric Adenocarcinoma); experiment: Cell viability analysis, gastric cancer MKN-45; format: cell-based, human; conditions: Homo sapiens, MKN-45, 72 h
# [2] = test system: HL-60 (Acute Promyelocytic Leukemia); experiment: Cell viability analysis, leukemia HL-60; format: cell-based, human; conditions: Homo sapiens, HL-60, 72 h, drug 10 μM, 72 hours, WST-1, OD450 nm; read-out: cell viability (survival rate), HL-60
# [3] = test system: SAS (Tongue squamous cell carcinoma); experiment: Cell viability analysis, tongue cancer SAS; format: cell-based, human; conditions: Homo sapiens, 72 h; SAS; repeated experiment; read-out: The results of antibiotic drug inhibiting cancer cell lines (cell viability analysis), SAS
# TOV-21G = experiment: Cell viability analysis, ovarian cancer TOV-21G; format: cell-based, human; conditions: Homo sapiens, TOV21G, 72 h; TOV-21G; repeated experiment; read-out: The results of antibiotic drug inhibiting cancer cell lines (cell viability analysis), TOV-21G
# NIH: OVCAR-3 = experiment: Cell viability analysis, ovarian cancer NIH: OVCAR-3; format: cell-based, human; conditions: Homo sapiens, 72 h; NIH-OVCAR-3; repeated experiment; read-out: The results of antibiotic drug inhibiting cancer cell lines (cell viability analysis), NIH-OVCAR-3
# [4] = test system: AGS (Gastric Adenocarcinoma); experiment: Cell viability analysis, gastric cancer AGS; format: cell-based, human; conditions: Homo sapiens, 72 h
# T24 = experiment: Cell viability analysis, bladder cancer T24; format: cell-based, human; conditions: Homo sapiens, T-24, 72 h; T24; repeated experiment; read-out: The results of antibiotic drug inhibiting cancer cell lines (cell viability analysis), T24
# AsPC-1 = experiment: Cell viability analysis, pancreatic cancer AsPC-1; format: cell-based, human; conditions: Homo sapiens, ASPC1, 72 h; AsPC-1; repeated experiment; read-out: The results of antibiotic drug inhibiting cancer cell lines (cell viability analysis), AsPC-1
# [5] = test system: TSGH-8301 (Urinary Bladder Carcinoma); experiment: Cell viability analysis, bladder cancer TSGH-8301; format: cell-based, human; conditions: Homo sapiens, 72 h
# [6] = test system: MDA-MB-231 (Mammary Gland, Adenocarcinoma); experiment: Cell viability analysis, breast cancer MDA-MB-231; format: cell-based, human; conditions: Homo sapiens, MDA-MB-231, 72 h; MDA-MB231; repeated experiment; read-out: The results of antibiotic drug inhibiting cancer cell lines (cell viability analysis), MDA-MB231
# [7] = test system: HI650 (Lung Adenocarcinoma); experiment: Cell viability analysis, lung cancer HI650; format: cell-based, human; conditions: Homo sapiens, NCI-H1650, 72 h
# [8] = test system: A549 (Lung Adenocarcinoma); experiment: Cell viability analysis, lung cancer A549; format: cell-based, human; conditions: Homo sapiens, A549, 72 h
# [9] = test system: C-33A (Cervical carcinoma); experiment: Cell viability analysis, cervical cancer C-33A; format: cell-based, human; conditions: Homo sapiens, 72 h; C-33A; repeated experiment; read-out: The results of antibiotic drug inhibiting cancer cell lines (cell viability analysis), C-33A
# [10] = test system: Hep3B (hepatocellular carcinoma); experiment: Cell viability analysis, hepatic cancer Hep3B; format: cell-based, human; conditions: Homo sapiens, 72 h; Hep3B; repeated experiment; read-out: The results of antibiotic drug inhibiting cancer cell lines (cell viability analysis), Hep3B
# [11] = test system: 786-O (Renal adenocarcinoma); experiment: Cell viability analysis, renal cancer 786-O; format: cell-based, human; conditions: Homo sapiens, 786-0, 72 h; 786-O; repeated experiment; read-out: The results of antibiotic drug inhibiting cancer cell lines (cell viability analysis), 786-O
# [12] = test system: HepG2 (Hepatocellular Carcinoma); experiment: Cell viability analysis, hepatic cancer HepG2; format: cell-based, human; conditions: Homo sapiens, HepG2, 72 h
# [13] = test system: BCC (basal cell carcinoma); experiment: Cell viability analysis, skin cancer BCC; format: cell-based, human; conditions: Homo sapiens, 72 h; BCC; repeated experiment; read-out: The results of antibiotic drug inhibiting cancer cell lines (cell viability analysis), BCC
# [14] = test system: PC3 (p53−) (Prostate Adenocarcinoma); experiment: Cell viability analysis, prostate cancer PC3; format: cell-based, human; conditions: Homo sapiens, 72 h
# [15] = test system: MCF7 (Mammary Gland, Adenocarcinoma); experiment: Cell viability analysis, breast cancer MCF7; format: cell-based, human; conditions: Homo sapiens, MCF7, 72 h
# [16] = test system: A375 (Amelanotic Melanoma); experiment: Cell viability analysis, skin cancer A375; format: cell-based, human; conditions: Homo sapiens, A-375, 72 h
# [17] = test system: LoVo (Colorectal Adenocarcinoma); experiment: Cell viability analysis, colon cancer LoVo; format: cell-based, human; conditions: Homo sapiens, LoVo, 72 h
# [18] = test system: HeLa (Cervix Adenocarcinoma); experiment: Cell viability analysis, cervical cancer HeLa; format: cell-based, human; conditions: Homo sapiens, HeLa, 72 h, HeLa
# cancer cell lines = experiment: Cell viability analysis (WST-1) on cancer cell lines; format: cell-based, human; conditions: drug 10 μM, 72 hours, WST-1; Table 3
# [19] = test system: HCT116 (p53+) (Colorectal Carcinoma)
compound,measurement,setting,value
"CC(C)CN(C[C@@H](O)[C@H](Cc1ccccc1)NC(=O)O[C@H]1CCOC1)S(=O)(=O)c1ccc(N)cc1 [Amprenavir (Agenerase), Amprenavir]",viability at 10 µM,"[1]; MKN-45, repeated experiment, read-out: The results of antibiotic drug inhibiting cancer cell lines (cell viability analysis), MKN-45",103%
same,viability at 10 µM,"[1]; drug 10 μM, 72 hours, WST-1, OD450 nm, read-out: cell viability (survival rate), MKN-45",52.1%
same,viability at 10 µM,[2],111%
same,viability at 10 µM,[3],83.3%
same,viability at 10 µM,TOV-21G,97%
same,viability at 10 µM,NIH: OVCAR-3,106%
same,viability at 10 µM,"[4]; AGS, repeated experiment, read-out: The results of antibiotic drug inhibiting cancer cell lines (cell viability analysis), AGS",98.6%
same,viability at 10 µM,"[4]; drug 10 μM, 72 hours, WST-1, OD450 nm, read-out: cell viability (survival rate), AGS",58.8%
same,viability at 10 µM,T24,90.5%
same,viability at 10 µM,AsPC-1,90.4%
same,viability at 10 µM,"[5]; TSGH-8301, repeated experiment, read-out: The results of antibiotic drug inhibiting cancer cell lines (cell viability analysis), TSGH-8301",96.1%
same,viability at 10 µM,"[5]; drug 10 μM, 72 hours, WST-1, OD450 nm, read-out: cell viability (survival rate), TSGH",57%
same,viability at 10 µM,[6],83.5%
same,viability at 10 µM,"[7]; H1650, repeated experiment, read-out: The results of antibiotic drug inhibiting cancer cell lines (cell viability analysis), H1650",88.1%
same,viability at 10 µM,"[7]; drug 10 μM, 72 hours, WST-1, OD450 nm, read-out: cell viability (survival rate), H1650",69.5%
same,viability at 10 µM,"[8]; A549, repeated experiment, read-out: The results of antibiotic drug inhibiting cancer cell lines (cell viability analysis), A549",79.9%
same,viability at 10 µM,"[8]; drug 10 μM, 72 hours, WST-1, OD450 nm, read-out: cell viability (survival rate), A549",53.7%
same,viability at 10 µM,[9],109%
same,viability at 10 µM,[10],95.2%
same,viability at 10 µM,[11],96.7%
same,viability at 10 µM,"[12]; HepG2, repeated experiment, read-out: The results of antibiotic drug inhibiting cancer cell lines (cell viability analysis), HepG2",94.5%
same,viability at 10 µM,"[12]; drug 10 μM, 72 hours, WST-1, OD450 nm, read-out: cell viability (survival rate), HepG2",90.9%
same,viability at 10 µM,[13],74.5%
same,viability at 10 µM,"[14]; PC-3, repeated experiment, read-out: The results of antibiotic drug inhibiting cancer cell lines (cell viability analysis), PC-3",87.4%
same,viability at 10 µM,"[14]; drug 10 μM, 72 hours, WST-1, OD450 nm, read-out: cell viability (survival rate), PC3",80.4%
same,viability at 10 µM,"[15]; MCF-7, repeated experiment, read-out: The results of antibiotic drug inhibiting cancer cell lines (cell viability analysis), MCF-7",68.3%
same,viability at 10 µM,"[15]; drug 10 μM, 72 hours, WST-1, OD450 nm, read-out: cell viability (survival rate), MCF7",37%
same,viability at 10 µM,"[16]; A375, repeated experiment, read-out: The results of antibiotic drug inhibiting cancer cell lines (cell viability analysis), A375",88.1%
same,viability at 10 µM,"[16]; drug 10 μM, 72 hours, WST-1, OD450 nm, read-out: cell viability (survival rate), A375",77.6%
same,viability at 10 µM,"[17]; read-out: The results of antibiotic drug inhibiting cancer cell lines (cell viability analysis), LoVo, repeated experiment",95.5%
same,viability at 10 µM,"[17]; read-out: cell viability (survival rate), LoVo, drug 10 μM, 72 hours, WST-1, OD450 nm",77.4%
same,viability at 10 µM,"[18]; repeated experiment, read-out: The results of antibiotic drug inhibiting cancer cell lines (cell viability analysis), HeLa",67.9%
same,viability at 10 µM,"[18]; drug 10 μM, 72 hours, WST-1, OD450 nm, read-out: cell viability (survival rate), HeLa",67.5%
same,inhibition effect on different cancer cell lines,cancer cell lines,significant inhibition effect
same,viability,[19],94.5%

# Source: patent US10105357B2, “Indication of antibiotic drugs for preparation of cancer inhibition pharmaceutical composition” (LAUNX BIOMEDICAL CO., LTD., priority 2014, dated 2018)
